Measurements from US12485192B2, “Cellular targeted label delivery system” (CELLIS AG, priority 2016, dated 2025).

Legend:
[1] = tested on: CD45+ leukocyte cells (macrophages, monocytes, lymphocytes, granulocytes); test: Uptake of iron binding proteins by CD45+ leukocyte cells in culture; type: cell-based, mouse; details: incubation 1-4 hrs, 0.1-0.2 mg/ml protein solution, standard culture conditions; FIG. 5
Experimental: (§1) Obtained cells are incubated in ferritin solution for a time and at the concentration sufficient to ensure proper ratio of ferritin/cell for their full load and also to ensure proper contrast content to obtain proper imaging). The time and concentration may vary depending on the number of molecules encapsulated/adsorbed into the ferritin cage, status of cell activation, condition and number of their intended administration.
For example, to ensure proper load with ferritins, cells are incubated for 1-4 hrs in ferritin solution 0.2 mg/ml in standard culture conditions. The frame of ferritin concentration may vary at least between 0.01 and 4 mg/ml as well as incubation time (5 min-6 hrs or more). Adjusting time and concentration of ferritin load to cells, the influence of ferritin and treatment conditions on cell viability should be minded.
as §1, with “haemoglobin” for “ferritin”, “haemoglobin/cell” for “ferritin/cell”, “imaging.” for “imaging).”, “linked with” for “encapsulated/adsorbed into”, “haemoglobin molecule,” for “ferritin cage,”, “administration. […]” for “administration.”

[2] = tested on: metastatic 4T1 cancer; details: mouse, in vivo, iv
Excerpt: After labeling, cells should be centrifuged and supernatant should be removed. This step should be repeated until no radioactivity is detected in the supernatant.

| Substance | uptake of iron binding protein by cells [1] | PET signal [2] |
| --- | --- | --- |
| transferrin: human holo-transferrin purified from serum of healthy donor | very easily uptake |  |
| 18F fluorodeoxyglucose [plain 18F-1-DG] |  | lower PET signal |
| haemoglobins: human haemoglobin prepared from fresh red cells | very easily uptake |  |
